pEC50, pIC50: −log10 of the molar value.
Legend:
[1] = biological target: T1, Shaker K^+ channel (Drosophila melanogaster, UniProt P08510); assay: Inhibition of K+ currents, cut-open oocyte voltage clamp; format: cell-based, Xenopus oocytes
T1 construct: injecting approximately 50 ng of WT Shaker cRNA (kit Ambion) into the oocytes; expressed in transfected cells; host or cells: Xenopus laevis oocytes (cRNA injection)
Method: Using the cut-open oocyte voltage clamp studies to screen compounds to determine their potency towards Kv1 cannels was previously described in Starace and Bezanilla et al. (2004).
For this experiment, Shaker K^+ channel from D. […] was chosen as the archetypical voltage gated K^+ channel that gives name to the family.
Electrophysiology studies are conducted according to the protocol by Stefani and Bezanilla (1998). Briefly, K^+ channel Shaker cRNA is injected into Xenopus oocytes 24 h after their surgical extraction from adult frogs. 1-5 days after injection channel currents are recorded using the cut-open voltage-clamp.
K^+ channel expression in Xenopus oocytes membranes was achieved by injecting approximately 50 ng of WT Shaker cRNA (kit Ambion) into the oocytes 24 h after surgical extraction from adult frogs and collagenase treatment. Injected oocytes were maintained in a standard oocytes solution (100 mM NaCl, 5 mM KCl, 2 mM CaCl2, and 10 mM Hepes at pH 7.5) at 16.5° C. and recordings were performed 1-3 days after injection.
K^+ currents were recorded from oocytes expressing Shaker K^+ channels using the cut-open voltage clamp technique as described by Stefani and Bezanilla. The internal solution was 120 mM KOH, 20 mM HEPES-methyl sulfonate (MES) pH 7.4, 2 mM EGTA. The external solution was 12 mM KOH, 105 mM N-methyl-D-glucamine-MES pH 7.4, 20 mM HEPES, 2 mM CaOH. […] After application, cells were voltage-clamped at least 5 min at 0 mV, then voltage-clamped at −80 mV for 1-2 min. K^+ currents were generated by applying series of 50 ms pulses from −70 mV to +40 mV in increments of 10 mV. […] Analysis of the traces was done using an in-house software. The half-maximal inhibitory concentration (IC50) for each drug was calculated by plotting the relative K^+ current vs. concentration and fitted to the Hill equation using the software Origin.
(§1) EC50=10^<log EC50>; where <log EC50>=average of log EC50 values from all experiments with the same drug. 95% C.I.=[Upper Limit . . . Lower Limit]; where U.L.=10^(log EC50+s.d.) and L.L.=10^(log EC50−s.d.). The half-life (t1/2) in the stability and pharmacokinetic experiments was calculated by fitting the data to the equation Ct=C0*exp(−k*t) where C0=initial concentration, Ct=concentration at time t, and k=ln 2/t1/2. Student t-test was used to compare results and P<0.05 was considered significant.

[2] = test system: hypomyelinated optic nerves from Shiverer mice (shi^−/−); assay: Compound action potential (CAP) of dissected hypomyelinated optic nerve; format: cell-based, mouse; conditions: Mus musculus; hypomyelinated Shiverer optic nerve, 22 °C, Hill fit; read-out: half-maximal effective concentration (EC50) in enhancing the CAP
Method: In order to determine if the drugs could also be effective in enhancing compound action potentials (CAP), the effects of these compounds on the CAP of hypomyelinated optic nerves from Shiverer mice (shi^−/−) and control mice (shi^+/−, shi^+/+) were tested. Shiverer mice lack compact myelin in the CNS due to a null mutation of the myelin basic protein gene (MBP).
optic nerves were dissected from 12-16 week old Shiverer (shi^−/−) and control mice (shi^+/− and shi^+/+). Mice were euthanized by CO2 overdose and the optic nerves were quickly dissected between the eyeball and the optic chiasm. The nerves were incubated for 30 min at 37° C. in oxygenated (95% O2, 5% CO2) aCSF solution (126 mM NaCl, 3 mM KCl, 2 mM MgSO4, 26 mM NaHCO3, 2 mMCaCl2, 10 mM dextrose, pH 7.5) before the experiment.
compound action potentials (CAP) from hypomyelinated nerves (Shiverer mice, shi^−/−) and myelinated nerves (litermate controls, shi^+/− and shi^+/+) were recorded using suction electrodes as described by Stys et al. Briefly, the dissected optic nerve was placed inside a chamber containing oxygenated (5% CO2, 95% O2) aCSF (300 μL) between two suction electrodes (stimulus and recording electrodes) forming a tight seal on each end. Two additional electrodes were placed in the bath for reference. A supramaximal pulse (250 mV, 20 μs) was applied at the stimulating end of the nerve. The resulting CAP was amplified from the recording electrode using a high impedance low-noise amplifier (EG&G Princeton Applied Research Corporation) and filtered and sampled at 10-100 kHz. […] After each measurement the chamber was washed for 5 min (flow 1 mL/min) with oxygenated aCSF. The study was conducted at 22.2±1.3° C. to allow for slower conduction and the temperature was monitored throughout the experiment. CAP recordings were acquired with a SBC6711 board (Innovative Integration) controlled by in-house written software. Analysis of the traces was done using an in-house software. The half-maximal effective concentration (EC50) for each drug was calculated by plotting the final over initial amplitude vs. concentration and fitted to the Hill equation using Origin.
as §1, with “The Hill equation used to fit the data from the voltage-clamp and the optic nerve experiments was as follows: y=y0+(yf−y0)*x^n/(k^n+x^n); where n refers to the Hill coefficient (typically 1±0.1) and k refers to EC50 or IC50. y0 and yf refers to the origin and final ordinate values and were fixed at 1±0.1 or 0±0.1 depending on the experiment. EC50=10^<log” for “EC50=10^<log”

T1 sequence (P08510 whole entry): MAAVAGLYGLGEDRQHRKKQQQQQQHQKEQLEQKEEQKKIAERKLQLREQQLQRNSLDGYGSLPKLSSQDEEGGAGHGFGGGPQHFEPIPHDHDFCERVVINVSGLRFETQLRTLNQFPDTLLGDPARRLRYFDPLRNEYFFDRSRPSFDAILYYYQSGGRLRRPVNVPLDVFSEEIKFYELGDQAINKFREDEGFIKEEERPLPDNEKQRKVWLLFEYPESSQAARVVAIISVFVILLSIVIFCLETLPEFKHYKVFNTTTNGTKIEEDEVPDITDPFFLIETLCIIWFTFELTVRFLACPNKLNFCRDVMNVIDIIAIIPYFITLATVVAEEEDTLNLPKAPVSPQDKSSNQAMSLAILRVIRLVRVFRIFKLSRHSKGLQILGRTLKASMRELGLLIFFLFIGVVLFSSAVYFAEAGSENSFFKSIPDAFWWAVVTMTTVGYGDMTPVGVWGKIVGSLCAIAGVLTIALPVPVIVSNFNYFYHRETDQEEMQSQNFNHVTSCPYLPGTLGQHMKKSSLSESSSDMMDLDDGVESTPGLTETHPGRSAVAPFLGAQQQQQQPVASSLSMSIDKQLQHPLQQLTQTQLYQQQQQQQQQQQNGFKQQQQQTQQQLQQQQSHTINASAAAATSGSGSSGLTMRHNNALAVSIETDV

In the case of `Nc1ccncc1F` [3-F-4-AP, 3-fluoro-4-aminopyridine], the “affinity for K^+ channels compared with 4-AP” value ([1]; cut-open oocyte voltage clamp (Example 2)) was “very similar affinity to 4-AP”, the pIC50 ([1]; relative K+ current at +20 mV, Xenopus oocytes, Hill fit, read-out: half-maximal inhibitory concentration (IC50)) was 3.60 and the pEC50 [2] was 4.02.

Reference: patent publication US10442767B2 (priority 2012, dated 2019)
